Test results reported in patent US8933105B2, “Pyrrole compounds” (Takeda Pharmaceutical Company Limited, priority 2007, dated 2015).
pIC50: −log10 of the molar value. Structures can show the parent of a compound that is named as a salt.

How the values were obtained:
[1] = molecular target: T1, proton, potassium-adenosine triphosphatase (H+,K+-ATPase) (Sus scrofa, UniProt P19156); experiment: Proton potassium-adenosine triphosphatase (H+,K+-ATPase) inhibitory activity test; assay type: biochemical; conditions: swine gastric microsomal fraction, pH 6.5, 37° C.
T1 construct: a gastric mucous membrane microsomal fraction was prepared from the stomach of swine; from tissue; host or cells: swine stomach, gastric mucous membrane microsomal fraction
Experimental: Proton Potassium-Adenosine Triphosphatase (H^+,K^+-ATPase) Inhibitory Activity Test
According to the method [Biochim. Biophys. Acta, 728, 31 (1983)] of Wallmark et al., a gastric mucous membrane microsomal fraction was prepared from the stomach of swine. First, the stomach was removed, washed with tap water, immersed in 3 mol/L brine, and the surface of the mucous membrane was wiped with a paper towel. The gastric mucous membrane was detached, chopped, and homogenized in a 0.25 mol/L saccharose solution (pH 6.8) containing 1 mmol/L EDTA and 10 mmol/L tris-hydrochloric acid using polytron (Kinematica). The obtained homogenate was centrifuged at 20,000×g for 30 min and the supernatant was centrifuged at 100,000×g for 90 min. The precipitate was suspended in 0.25 mol/L saccharose solution, superimposed on a 0.25 mol/L saccharose solution containing 7.5% Ficoll, and centrifuged at 100,000×g for 5 hr. The fraction containing the interface between the both layers was recovered, and centrifugally washed with 0.25 mol/L saccharose solution.
The obtained microsomal fraction was used as a proton, potassium-adenosine triphosphatase standard product.
To 40 μL of a 50 mmol/L HEPES-tris buffer (5 mmol/L magnesium chloride, 10 mmol/L potassium chloride, 10 μmol/L valinomycin, pH=6.5) containing 2.5 μg/mL (based on the protein concentration) of the enzyme standard product was added a test compound (5 μL) dissolved in a 10% aqueous dimethyl sulfoxide solution, and the mixture was incubated at 37° C. for 30 min. The enzyme reaction was started by adding 5 μL of a 2 mmol/L adenosine triphosphate tris salt solution (50 mmol/L HEPES-tris buffer (5 mmol/L magnesium chloride, pH 6.5)). The enzyme reaction was carried out at 37° C. for 20 min, and 15 μL of a malachite green solution (0.12% malachite green solution in sulfuric acid (2.5 mol/L), 7.5% ammonium molybdate and 11% Tween 20 were mixed at a ratio of 100:25:2) was added to quench the reaction. After allowing to stand at room temperature for 15 min, the resulting reaction product of inorganic phosphorus with malachite green was calorimetrically determined at a wavelength of 610 nm. In addition, the amount of the inorganic phosphoric acid in the reaction solution free of potassium chloride was measured in the same manner, which was subtracted from the inorganic phosphoric acid amount in the presence of potassium chloride to determine the proton, potassium-adenosine triphosphatase activity. The inhibitory rate (%) was determined from the activity value of the control and the activity values of various concentrations of the test compound, and the 50% inhibitory concentration (IC50) of the proton, potassium-adenosine triphosphatase was determined.

HepG2 = experiment: ATP content test (intracellular ATP content, ATPLite); assay type: cell-based, Human; conditions: HepG2, 30 μM, culture for one day, relative value to control (without addition of drug)
Experimental: (§1) Human liver cancer-derived cell line HepG2 (ATCC No. HB-8065) was passaged using Dulbecco's Modified Eagle medium (DMEM; Invitrogen) containing 10% fetal bovine serum (FBS; TRACE SCIENTIFIC LTD.), 1 mmol/L sodium pyruvate (Invitrogen), 2 mmol/L L-glutamine (Invitrogen), 50 IU/mL penicillin (Invitrogen) and 50 μg/mL streptomycin (Invitrogen) at 5% CO2, 37° C. The test reagent was prepared with DMSO to 10 mM, and further diluted with DMEM medium containing 0.5% FBS, 1 mmol/L sodium pyruvate, 2 mmol/L L-glutamine, 50 IU/mL penicillin and 50 μg/mL streptomycin to a final concentration of DMSO of 0.1%. HepG2 (2×10^4 cells/well) was cultured on a 96 well white plate (Costar) with the test reagent at 5% CO2, 37° C. After culture for one day, the intracellular ATP content was measured using ATPLite™ (PerkinElmer Life Sciences). The results are shown in Table 26 (n≧3, average value±SD) as a relative value (%) to control (without addition of drug) at 30 μM.

Caspase-3/7 = Caspase-3/7 activity test (Caspase-Glo 3/7 Assay); assay type: cell-based, Human; conditions: HepG2, 30 μM, culture for one day, relative to maximum with Staurosporine (100%) and no test reagent (0%)
Experimental: as §1
Caspase-3/7 Activity Test
The Caspase-3/7 activity in the cells cultured for one day by a method similar to that in Experimental Example 2 was measured using Caspase-Glo 3/7 Assay (Promega). The results are shown in Table 26 (n≧3, average value±SD) as relative activity (%) of each reagent based on the maximum value of Caspase-3/7 activity when exposed to Staurosporine (100%), and the activity without addition of a test reagent (0%).

T1 sequence (P19156 2-1034 limits assumed): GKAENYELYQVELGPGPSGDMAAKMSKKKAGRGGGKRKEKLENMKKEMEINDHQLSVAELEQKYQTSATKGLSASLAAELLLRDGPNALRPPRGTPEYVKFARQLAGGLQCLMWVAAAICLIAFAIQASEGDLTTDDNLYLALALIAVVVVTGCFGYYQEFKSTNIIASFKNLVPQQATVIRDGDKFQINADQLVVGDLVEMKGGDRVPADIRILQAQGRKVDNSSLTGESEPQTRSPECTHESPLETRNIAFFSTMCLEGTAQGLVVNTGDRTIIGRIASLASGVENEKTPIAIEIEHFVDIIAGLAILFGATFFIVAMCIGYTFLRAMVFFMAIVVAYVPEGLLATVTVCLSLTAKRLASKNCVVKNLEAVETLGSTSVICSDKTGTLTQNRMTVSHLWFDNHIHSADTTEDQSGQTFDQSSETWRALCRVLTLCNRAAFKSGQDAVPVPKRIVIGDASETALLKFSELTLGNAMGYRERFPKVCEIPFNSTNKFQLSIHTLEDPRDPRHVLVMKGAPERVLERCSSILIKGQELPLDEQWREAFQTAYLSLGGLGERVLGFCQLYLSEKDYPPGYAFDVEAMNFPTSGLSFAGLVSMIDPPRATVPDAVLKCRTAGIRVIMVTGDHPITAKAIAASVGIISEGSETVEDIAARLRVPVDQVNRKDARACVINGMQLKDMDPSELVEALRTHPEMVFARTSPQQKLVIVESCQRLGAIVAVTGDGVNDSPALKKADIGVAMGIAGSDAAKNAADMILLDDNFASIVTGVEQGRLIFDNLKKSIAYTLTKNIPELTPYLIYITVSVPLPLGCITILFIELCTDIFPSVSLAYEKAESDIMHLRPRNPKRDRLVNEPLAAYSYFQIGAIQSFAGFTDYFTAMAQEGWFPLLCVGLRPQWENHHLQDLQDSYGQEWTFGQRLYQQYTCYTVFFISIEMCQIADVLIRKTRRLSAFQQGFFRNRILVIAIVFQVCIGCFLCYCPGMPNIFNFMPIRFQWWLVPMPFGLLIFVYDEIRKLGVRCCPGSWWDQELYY
T1 sequence (P18434 whole entry partner): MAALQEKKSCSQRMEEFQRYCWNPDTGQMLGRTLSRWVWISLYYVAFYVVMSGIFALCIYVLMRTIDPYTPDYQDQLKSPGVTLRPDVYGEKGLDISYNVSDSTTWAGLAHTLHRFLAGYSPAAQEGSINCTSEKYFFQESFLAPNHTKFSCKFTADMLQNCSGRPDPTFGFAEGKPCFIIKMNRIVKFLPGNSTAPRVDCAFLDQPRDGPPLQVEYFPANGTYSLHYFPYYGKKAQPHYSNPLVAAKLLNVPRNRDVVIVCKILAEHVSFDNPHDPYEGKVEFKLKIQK

pIC50 [1]	ATP content (%, 30 μM) (HepG2) [%]	Caspase-3/7 activity (%, 30 μM) (Caspase-3/7) [%]	SMILES
6.89	93.4	−0.4	CNCc1cn(S(=O)(=O)c2cccnc2)c(-c2cccnc2Cl)c1F.O=C(O)/C=C/C(=O)O [Example 38, 1-[5-(2-chloropyridin-3-yl)-4-fluoro-1-(pyridin-3-ylsulfonyl)-1H-pyrrol-3-yl]-N-methylmethanamine fumarate]
7.05	103.9	0.2	CNCc1cn(S(=O)(=O)c2cccnc2)c(-c2cccnc2F)c1F.O=C(O)/C=C/C(=O)O [Example 8, 1-[4-fluoro-5-(2-fluoropyridin-3-yl)-1-(pyridin-3-ylsulfonyl)-1H-pyrrol-3-yl]-N-methylmethanamine fumarate]
6.57	82.7	0.0	CNCc1cc(-c2cccnc2C#N)n(S(=O)(=O)c2ccccc2Cl)c1.Cl [Example 99, 3-{1-[(2-chlorophenyl)sulfonyl]-4-[(methylamino)methyl]-1H-pyrrol-2-yl}pyridine-2-carbonitrile hydrochloride]
6.74	96.6	0.3	CNCc1cn(S(=O)(=O)c2nccs2)c(-c2cccnc2F)c1F.Cl [Example 83, 1-[4-fluoro-5-(2-fluoropyridin-3-yl)-1-(1,3-thiazol-2-ylsulfonyl)-1H-pyrrol-3-yl]-N-methylmethanamine hydrochloride]
6.92	87.7	0.2	CNCc1cc(-c2ccc(C)nc2F)n(S(=O)(=O)c2cccnc2)c1.O=C(O)/C=C/C(=O)O [Example 13, 1-[5-(2-fluoro-6-methylpyridin-3-yl)-1-(pyridin-3-ylsulfonyl)-1H-pyrrol-3-yl]-N-methylmethanamine fumarate]
7.59	97.3	−0.6	CNCc1cn(S(=O)(=O)c2ccccc2)c(-c2cccnc2F)c1F [Example 30, 1-[4-fluoro-5-(2-fluoropyridin-3-yl)-1-(phenylsulfonyl)-1H-pyrrol-3-yl]-N-methylmethanamine 0.5 fumarate]
7.01	102.0	−0.6	CNCc1cn(S(=O)(=O)c2ccccn2)c(-c2cccnc2F)c1F.Cl [Example 85, 1-[4-fluoro-5-(2-fluoropyridin-3-yl)-1-(pyridin-2-ylsulfonyl)-1H-pyrrol-3-yl]-N-methylmethanamine hydrochloride]
7.19	96.8	−0.4	CNCc1cc(-c2cccnc2Cl)n(S(=O)(=O)c2cccc(C#N)c2)c1.O=C(O)/C=C/C(=O)O [Example 54, 3-({2-(2-chloropyridin-3-yl)-4-[(methylamino)methyl]-1H-pyrrol-1-yl}sulfonyl)benzonitrile fumarate]
6.89	92.7	−0.8	CNCc1cn(S(=O)(=O)c2cccc(CO)c2)c(-c2cccnc2F)c1F [Example 48, [3-({3-fluoro-2-(2-fluoropyridin-3-yl)-4-[(methylamino)methyl]-1H-pyrrol-1-yl}sulfonyl)phenyl]methanol 0.5 fumarate]
6.64	97.3	−0.5	CNCc1cc(-c2cccnc2C#N)n(S(=O)(=O)c2ccccc2C#N)c1.Cl [Example 101, 3-{1-[(2-cyanophenyl)sulfonyl]-4-[(methylamino)methyl]-1H-pyrrol-2-yl}pyridine-2-carbonitrile hydrochloride]
7.24	86.6	−0.2	CNCc1cc(-c2cccnc2F)n(S(=O)(=O)c2ccc(F)cc2)c1.O=C(O)/C=C/C(=O)O [Example 20, 1-{1-[(4-fluorophenyl)sulfonyl]-5-(2-fluoropyridin-3-yl)-1H-pyrrol-3-yl}-N-methylmethanamine fumarate]
7.03	88.1	−0.5	CNCc1cn(S(=O)(=O)c2ccoc2C)c(-c2cccnc2F)c1F.Cl [Example 72, 1-{4-fluoro-5-(2-fluoropyridin-3-yl)-1-[(2-methylfuran-3-yl)sulfonyl]-1H-pyrrol-3-yl}-N-methylmethanamine hydrochloride]
7.23	91.4	−0.5	CNCc1cc(-c2cccnc2F)n(S(=O)(=O)c2ccco2)c1.O=C(O)/C=C/C(=O)O [Example 3, 1-[5-(2-fluoropyridin-3-yl)-1-(2-furylsulfonyl)-1H-pyrrol-3-yl]-N-methylmethanamine fumarate]
7.37	90.4	−0.8	CNCc1cc(-c2cccnc2Cl)n(S(=O)(=O)c2ccccc2)c1.Cl [Example 15, 1-[5-(2-chloropyridin-3-yl)-1-(phenylsulfonyl)-1H-pyrrol-3-yl]-N-methylmethanamine hydrochloride]
6.92	97.1	0	CNCc1cc(-c2cccnc2C#N)n(S(=O)(=O)c2ccccc2)c1.Cl [Example 16, 3-{4-[(methylamino)methyl]-1-(phenylsulfonyl)-1H-pyrrol-2-yl}pyridine-2-carbonitrile hydrochloride]
7.22	99.8	−0.3	CNCc1cn(S(=O)(=O)c2ccoc2)c(-c2cccnc2F)c1F.Cl [Example 50, 1-[4-fluoro-5-(2-fluoropyridin-3-yl)-1-(3-furylsulfonyl)-1H-pyrrol-3-yl]-N-methylmethanamine hydrochloride]
6.85	94.8	−0.2	CNCc1cn(S(=O)(=O)c2ccc(CF)o2)c(-c2cccnc2F)c1F.O=C(O)/C=C/C(=O)O [Example 66, 1-[4-fluoro-1-{[5-(fluoromethyl)-2-furyl]sulfonyl}-5-(2-fluoropyridin-3-yl)-1H-pyrrol-3-yl]-N-methylmethanamine fumarate]
6.96	85.2	−0.2	CNCc1cn(S(=O)(=O)c2ccccc2)c(-c2cccnc2F)c1C.Cl [Example 26, 1-[5-(2-fluoropyridin-3-yl)-4-methyl-1-(phenylsulfonyl)-1H-pyrrol-3-yl]-N-methylmethanamine hydrochloride]
7.59	88.1	−1.3	CNCc1cc(-c2cccnc2F)n(S(=O)(=O)c2ccccc2)c1.O=C(O)/C=C/C(=O)O [Example 1, 1-[5-(2-fluoropyridin-3-yl)-1-(phenylsulfonyl)-1H-pyrrol-3-yl]-N-methylmethanamine fumarate]
7.15	–	–	CNCc1cn(S(=O)(=O)c2cccnc2)c(-c2cccnc2F)c1F [Example 28, 1-[4-fluoro-5-(2-fluoropyridin-3-yl)-1-(pyridin-3-ylsulfonyl)-1H-pyrrol-3-yl]-N-methylmethanamine 0.5 fumarate]
